Results from patent publication US8962322B2, “Enhancers of induced pluripotent stem cell reprogramming” (City of Hope, priority 2012, dated 2015).
Read-outs that look alike come from different tables or passages of the source.

Legend:
[1] = day 8 post-infection of reprogramming factors; cited from earlier work
MEFs = conditions: OSKM, cited from earlier work
[2] = test system: mouse embryonic fibroblasts (MEFs); experiment: iPSC derivation from 4F (OSKM)-transduced MEFs in mouse ESC media; format: cell-based; conditions: 4F+OAC
Procedure: The generation of iPSCs is a gradual process with relatively low efficiency. Since Oct4 is central to the reprogramming process (35, 36, 38), it was hypothesized that compounds that activate Oct4 transcription may facilitate iPSC generation by enhancing reprogramming efficiency. Reprogramming of mouse embryonic fibroblasts (MEFs) was performed with the 4F reprogramming quartet Oct4, Sox2, Klf4, and c-Myc, along with solvent control, OAC1 or its structural analogs OAC2 and OAC3. The same number of starting MEFs and the same viral stocks were used for each treatment. Two days after viral transduction, the 4F-transduced cells were seeded onto feeder cells in mouse ESC culture media, and this day was designated as day 0 (FIG. 2D). Compound treatment started on day 0 and lasted for 7 days. By counting the number of clones with ESC-like morphology at day 18, both OAC1 and its analogs OAC2 and OAC3 enhanced the 4F-induced reprogramming efficiency considerably. The number of colonies with ESC-like morphology (FIG. 2E) increased 2-fold or more in 4F plus OAC (4F+OAC) treatment, compared to the 4F treatment alone (FIG. 2F, Table 3).
iPSC Derivation in Mouse ESC Media: OG2/R26MEFs were seeded onto […] at the density of 4×10^4 cells per well in DMEM medium with 10% FBS, 0.1 mM non-essential amino acids (NEAA), and 0.1 mM L-glutamine, 24 hr before transduction. Freshly concentrated viruses of the four factors, Oct4, Sox2, c-Myc, and Klf4, were added to the cells. Two days after viral infection, the viral-transduced OG2/R26MEFs were split into new 6-well plates with irradiated MEF feeder cells and cultured in mouse ESC culture medium containing 15% ESC qualified FBS, 2 mM L-glutamine, 0.1 mM 2-mercaptoethanol, 0.1 mM NEAA, 1 mM sodium pyruvate and 1000 U/ml of leukemia inhibitory factor (LIF), and this day was defined as day 0. 1 μM of each compound (OAC1, OAC2, and OAC3) was added to the 4F-transduced cells at day 0 and treatment was continued for 1 week. When iPSC colonies emerged, these colonies were picked for expansion on irradiated MEF feeders in mouse ESC medium.

human Nanog promoter = experiment: Nanog-luc luciferase reporter assay (stably transfected CV1 cells); format: cell-based; conditions: for induction of Nanog-luc, comparison with known reprogramming enhancers (in words): OAC1 1 μM, BIO 2 μM, BIX 2 μM, AzaC 2 μM, Vc 25 μg/ml, Am580 10 nM, tranylcypromine 5 μM, VPA 0.5 mM, two days
Procedure: Oct4, Sox2, and Nanog form a positive regulatory loop to regulate the expression of each other, and Nanog is considered a downstream target gene of Oct4 and Sox2 (37). Therefore, activation of Nanog promoter was used as a validation assay for the identified compounds. Specifically, the Oct4 promoter-activating compounds were tested to ascertain whether they activate a human
Nanog promoter-driven luciferase reporter gene using in triplicate luciferase reporter assays.
(§1) Then the promoter sequences were cloned into pGL4.4-luc-Hyg vector (Promega) to get Oct4-luc or Nanog-luc construct and the fidelity of the Oct4 and Nanog promoter DNA sequences was confirmed by bi-directional sequencing. CV 1 cells were transfected with the Oct4-luc or Nanog-luc constructs and the stably-transfected cells were selected by hygromycine resistance.
(§2) Luciferase Reporter Assays: The Oct4-luc or Nanog-luc cells were treated with compound OAC 1 or its structural analogs at 1 μM concentration or at indicated concentrations in triplicates. Other compounds used include 2 μM BIO, 2 μM BIX, 2 μM
(§3) AzaC, 25 μg/ml Vc, 10 nM Am580, 5 μM tranylcypromine, and 0.5 mM VPA. Luciferase reporter assays were performed as described (51) 24 hr after compound treatment or at indicated time points. For Topflash reporter assays, 0.2 μg β-catenin-responsive Topflash reporter gene plasmid was introduced into CV1 cells using trasfection (Bio-Rad). Compounds were added 6 hr after transfection. Luciferase activity was measured 48 hr after compound treatment using the Glo Luciferase Assay System (Promega).

[3] = test system: human fibroblast cells (IMR90); experiment: human iPSC derivation from 4F (OSKM)-transduced IMR90 fibroblasts; format: cell-based
Procedure: It has been shown that compound OAC1 (Oct4-activating compound I) and two of its structural analogs OAC2 and OAC3 can enhance reprogramming efficiency, when added to the reprogramming mixture along with the four transcription factors, Oct4, Sox2, Klf4, and c-Myc (OSKM), in mouse system. The OAC compounds were tested to determine if they can enhance reprogramming efficiency in human system. The reprogramming process was performed as described in the diagram (FIG. 14a). Briefly, human fibroblast cells (IMR90) were induced to reprogram into induced pluripotent stem cells (iPSCs) using the four reprogramming factors (4F), OSKM. The day when the cells were transduced with the four reprogramming factors was referred to as day 0. Cells were cultured in IMR90 media for six days. On day 6, the transduced cells were split and seeded onto feeders. On day 7, IMR90 culture media was changed to hESC culture media and started compound treatment. Compound treatment was lasted for one week. Cells were monitored for the appearance of human embryonic stem cell (ESC)-like colonies. On day 9, several small human ESC-like colonies appeared in both 4F+OAC1 and 4F+OAC2-treated cells, however, human ESC-like colonies were not observed in 4F+vehicle (4F)-treated cells until day 11. To determine the effect of OAC on the efficiency of human iPSC derivation, the number of human ESC-like colonies were counted under all three conditions at day 18. Both OAC 1 and its structural analog OAC2 increased the number of human ESC-like colonies more than two-fold (FIG. 14b, c). The human ESC-like colonies were picked from either 4F or 4F+OAC-treated cells and expanded under human ESC culture conditions. These cells were able to expand and stably produce human iPSC clones with characteristic human ESC-like morphology (FIG. 14d).

human Oct4 promoter = experiment: Oct4-luc luciferase reporter assay (stably transfected CV1 cells); format: cell-based; conditions: for fold induction at 1 µM / Oct4-luc Activity / Oct4-luc fold Induction: compound at 1 μM, Oct4-luc cells, triplicates; for induction of Oct4-luc, comparison with known reprogramming enhancers (in words): OAC1 1 μM, BIO 2 μM, BIX 2 μM, AzaC 2 μM, Vc 25 μg/ml, Am580 10 nM, tranylcypromine 5 μM, VPA 0.5 mM, two days
Excerpt: A high-throughput screening scheme was designed to identify Oct4 promoter-activating compounds using a luciferase reporter under the control of the human Oct4 promoter (Oct4-luc). […] A stable cell line (Oct4-luc) that expresses luciferase reporter driven by the exogenous Oct4 promoter was established using hygromycin-resistance as a selection marker. These Oct4-luc cells were used for high-throughput screening of a chemical library of 80,000 compounds. The luciferase reporter activity was measured 24 hr after compound treatment. Solvent treatment was included as a negative control.
as §1
Compound Screening: The Oct4-luc cells were seeded at 1.75×10^4 cells per well density into 96-well plates. Compounds were added to cells one day after cell seeding at the concentration of 10 μM for 24 hr in the High-Throughput Screening core facility at City of Hope. Compounds that induced luciferase activity 3-fold or more were selected for further validation in both Oct4-luc and Nanog-luc cells.
as §2, §3

[4] = test system: β-catenin-responsive reporter gene Topflash; experiment: Topflash luciferase reporter assay in CV1 cells (Wnt signaling); format: cell-based; conditions: 1 μM OAC1 or 2 μM BIO, 48 hr
Procedure: Whether OAC1 regulates major signaling pathways that are critical for embryonic stem cell pluripotency was investigated. […] CV1 cells were transfected with the β-catenin-responsive reporter gene Topflash, and the transfected cells were treated with vehicle control or OAC1 (FIG. 6C). The glycogen synthase kinase 3β (GSK3β) inhibitor BIO was included as a positive control (42).
as §3

[5] = seeding 7,500, day 30, reference (5) Ichida 2009
[6] = seeding 2.7 × 10^5, day 8, reference (2) Huangfu 2008
[7] = seeding 5 × 10^4, day 25, reference (4) Lyssiotis 2009
[8] = compound at 1 μM, Nanog-luc cells, triplicates

Row | Structure (SMILES) | Nanog-luc fold Induction (human Nanog promoter; [8]) [fold] | Oct4-luc fold Induction (human Oct4 promoter) [fold] | Oct4-luc Activity (human Oct4 promoter) | also measured
1 | CC(/C=C/C(=O)NO)=C\[C@@H](C)C(=O)c1ccc(N(C)C)cc1 [TSA] | – | – | – | increase in reprogramming efficiency in iSF1 media [1]: 2 fold
2 | Cc1cccc(-c2[nH]ncc2-c2ccc3ncccc3n2)n1 [RepSox2] | – | – | – | Colony numbers (MEFs; [5]): 7.5; Reprogramming efficiency (MEFs; [5]): 0.1%
3 | O=C(Nc1ccc2[nH]ccc2c1)c1ccccc1 [OAC2, N-(1H-indol-5-yl)benzamide] | – | – | – | advance of the appearance of putative iPSC colonies compared to 4F only reprogramming [2]: about three to four; fold induction at 1 µM (human Nanog promoter; Chlorocebus aethiops, CV-1, compound at 1 μM, Nanog-luc cells, triplicates): 3.9; day at which human ESC-like colonies appeared ([3]; IMR90, 4F+compound, day 0 = transduction, 4F+vehicle day 11): 9 days; increase in the number of human ESC-like colonies ([3]; IMR90, day 18, versus 4F): more than two; fold induction at 1 µM (human Oct4 promoter; Homo sapiens, CV-1, 24 h, read-out: Oct4-luc Activity): ≥ 1.8; fold induction at 1 µM (human Oct4 promoter; read-out: Oct4-luc fold Induction): 3.6
4 | CCCC(CCC)C(=O)O [VPA, valproic acid] | – | – | – | Colony numbers (MEFs; [6]): 241; Reprogramming efficiency (MEFs; [6]): 0.089%; induction of Nanog-luc, comparison with known reprogramming enhancers (in words) (human Nanog promoter): no significant effect; increase in reprogramming efficiency in iSF1 media [1]: 2 fold; induction of Oct4-luc, comparison with known reprogramming enhancers (in words) (human Oct4 promoter): no significant effect
5 | O=C1Cc2c([nH]c3ccc(Br)cc23)-c2ccccc2N1 [Kenpaullone, kenpaullone] | – | – | – | Colony numbers (MEFs; [7]): 100; Reprogramming efficiency (MEFs; [7]): 0.2%
6 | O=C1Nc2cc(Br)ccc2/C1=C1/Nc2ccccc2/C1=N\O [BIO, reference compound] | – | – | – | induction of Nanog-luc, comparison with known reprogramming enhancers (in words) (human Nanog promoter): lower level induction; effect on Topflash reporter activity [4]: activated the Topflash reporter potently; induction of Oct4-luc, comparison with known reprogramming enhancers (in words) (human Oct4 promoter): lower level induction
7 | Cc1ccc(C(=O)Nc2ccc3[nH]cc(C#N)c3c2)cc1 [Compound C17] | 1.1 | 1.1 | + (molecules that induce Oct4-luc less than 1.8-fold were indicated as “+”) | –
8 | O=C(Nc1ccc2[nH]ncc2c1)c1ccccc1F [Compound C22] | 1.6 | 1.5 | + (molecules that induce Oct4-luc less than 1.8-fold were indicated as “+”) | –
9 | CCOc1ccccc1C(=O)Nc1ccc2[nH]ncc2c1 [Compound C26] | 1.2 | 1.2 | + (molecules that induce Oct4-luc less than 1.8-fold were indicated as “+”) | –
10 | CC1(C)CCC(C)(C)c2cc(C(=O)Nc3ccc(C(=O)O)cc3)ccc21 [Am580, reference compound] | – | – | – | induction of Nanog-luc, comparison with known reprogramming enhancers (in words) (human Nanog promoter): no significant effect; induction of Oct4-luc, comparison with known reprogramming enhancers (in words) (human Oct4 promoter): no significant effect
11 | COc1ccc(C(=O)Nc2ccc3[nH]ncc3c2)c(OC)c1 [Compound C28] | 1.4 | 1.4 | + (molecules that induce Oct4-luc less than 1.8-fold were indicated as “+”) | –
12 | O=C(Nc1ccc2[nH]ncc2c1)c1cccc(Cl)c1 [Compound C19] | 1.5 | 1.6 | + (molecules that induce Oct4-luc less than 1.8-fold were indicated as “+”) | –

Further lines, with some results ahead:

Row | Nanog-luc fold Induction (human Nanog promoter; [8]) [fold] | Oct4-luc fold Induction (human Oct4 promoter) [fold] | Structure (SMILES) | Oct4-luc Activity (human Oct4 promoter) | also measured
13 | 2.4 | 2.9 | O=C(Nc1ccc2[nH]ccc2c1)c1ccc2nonc2c1 [OAC5] | ++ (Compounds that induce Oct4-luc 1.8-fold or more were classified as “++”) | –
14 | 4.9 | 4.8 | COc1ccc(C(=O)Nc2ccc3[nH]ccc3c2)cc1 [OAC4] | ++ (Compounds that induce Oct4-luc 1.8-fold or more were classified as “++”) | –
15 | 4.4 | 4.4 | CCOc1ccc(C(=O)Nc2ccc3[nH]ncc3c2)cc1 [OAC9] | ++ (Compounds that induce Oct4-luc 1.8-fold or more were classified as “++”) | –
16 | 4.56 | 4.2 | CN(C)c1ccc(C(=O)Nc2ccc3[nH]ncc3c2)cc1 [OAC17] | ++ (Compounds that induce Oct4-luc 1.8-fold or more were classified as “++”) | –
